# Source: US9700633B2, “Conjugates of water soluble polymer-amino acid oligopeptide-drug, preparation method and use thereof” (JENKEM TECHNOLOGY CO. LTD., TIANJIN BRANCH, priority 2013, dated 2017)
# Where “and” joins values, the source holds several entries; their conditions need not be identical. Equal values may be shown once. Read-outs that look alike come from different tables or passages of the source.
# Legend:
# [1] = system: K562 human chronic myelogenous leukemia; assay: Subcutaneous tumor model of K562 human chronic myelogenous leukemia; assay type: in vivo, NOD/SCID mice; details: 5 mg/kg; for Relative tumor volume (x ± SE) / Tumor volume (x ± SE): intravenous twice a week
# Experimental: K562 cells were subcutaneously inoculated at the back of NOD/SCID mice right side so as to establish a subcutaneous xenograft animal model of human chronic myelogenous leukemia. When the average tumor volume reached 130 mm^3, the experiment mice were divided to different groups, with 8 mice for each group, and the drugs were administrated by intravenous injections twice a week. The effect was evaluated based on relative tumor proliferation ratio (T/C %).
# Tumor cells were routinely passaged twice a week. Tumor cells in exponential growth phase were collected, then suspended in a mixture of PBS: matrigel with equal volume ratio and placed on ice for tumor inoculation.
# 5×10^6 K562 cells were subcutaneously inoculated at the back of experiment mice right side. The mice were monitored at regular intervals for the tumor growth. When tumor grew to average 130 mm^3, the mice were divided to groups randomly according to tumor volume and mouse body weight, and were administrated.
# (§1) All of the operations relevant to operation, nursing and treatment in this investigation were conducted according to guidelines approved by Association for Assessment and Accreditation of Laboratory Animal Care (AAALAC). After the incoluation, the incidence of disease and death of animals were observed every day. In the process of daily observation, the effects of tumor growth on normal behavior of animals (such as exercise, feeding, drinking, body weight change, eyes, hair) as well as any other abnormality were attentively monitored. Death and clinical symptom were recorded for animals in each group.
# The calculation formula for tumor volume is as follows: tumor volume (mm^3)=0.5×(long diameter of the tumor×short diameter of the tumor^2). RTV and T/C ratios were calculated according to the tumor volumes of the treatment groups and the control group. RTV refers to relative tumor volume. T/C ratio refers to the percentage value of the average tumor volumes between the treatment groups and the control group at a time point after the treatment, which reflects the anti-tumor effects of different treatment groups.
# All the experiment results were expressed as the average tumor volume±SE (standard error). For statistical analysis, since the variances of relative tumor volume data were different, one-way analysis of variance (one-way ANOVA) and Dunnett T3 method for multiple comparisons were used to compare significant difference of relative tumor volumes between the groups. p<0.05 indicated the significant difference.
# [2] = system: PC-3 human prostate cancer; assay: Subcutaneous tumor model of PC-3 human prostate cancer; assay type: in vivo, Balb/c nude mouse; details: 10 mg/kg
# Experimental: PC-3 cells were subcutaneously inoculated at the right side on the back of Balb/c nude mouse so as to establish a subcutaneous xenograft animal model of human prostate cancer. When the average tumor volume reached 160 mm^3, the experiment mice were divided to different groups, with 8 mice for each group, and the drugs were administrated by intravenous injections twice a week. The therapeutic effect was evaluated based on relative tumor proliferation ratio (T/C %).
# PC-3 cell line was cultured in vitro in Ham's F12K medium with supplement of 10% fetal calf serum and L-glutamine (2 mM) at 37° C. in an atmosphere with 5% CO2 for the tumor cells culture. The tumor cells were routinely passaged twice a week. Tumor cells in exponential growth phase were collected, then were suspended in a mixture of PBS: matrigel with equal volume ratio and were placed on ice for tumor inoculation.
# 5×10^6 PC-3 cells were subcutaneously inoculated at the right side on the back of experiment mice. The mice were monitored at regular intervals for the tumor growth. When tumor grew to average 160 mm^3, the mice were divided to groups randomly according to the tumor volume and the mouse body weight, and were administrated.
# as §1
# The calculation formula for tumor volume is as follows: tumor volume (mm^3)=0.5×(long diameter of the tumor×short diameter of the tumor^2). RTV and T/C ratios were calculated according to the tumor volumes of the treatment groups and the control group. RTV refers to relative tumor volume. T/C ratio refers to the percentage value of the relative tumor volumes of the treatment groups and the control group at a time point after the treatment, which reflects the anti-tumor effects of different treatment groups. At the end of the experiment, the pictures of the tumors were recorded according to the following two methods: 1. after euthanatized by CO2, the animals in each group were placed with tumor-bearing side up, and the pictures were taken and recorded respectively for each group; 2. after the tumor was removed, the tumor weight was weighed first. T/C (percentage value of the tumor weight between the treatment group and the control group) was calculated, and then the tumors from each group were placed in order. The pictures of the tumors were taken and recorded.
# All the experiment results were expressed as average tumor volume±SE (standard error). For statistical analysis, one-way analysis of variance (one-way ANOVA) and LSD multiple comparisons method were used for the relative tumor volume data, comparing the significant difference of the relative tumor volumes between the groups. p<0.05 indicates the significant difference.
# [3] = system: human liver cancer plc/prf/5; details: 10 mg/kg (based on rapamycin), i.v., Q2W × 2W
# Experimental: Plc/prf/5 cells were cultured in vitro in monolayer under conditions of MEM medium with supplement of 10% heat-inactivated fetal calf serum at 37° C. in an incubator at an atmosphere with 5% CO2. The cells were digested by using tyrisin-EDTA and passaged twice a week. Cells in exponential growth phase were collected, counted and used to inoculate.
# 1×10^7 plc/prf/5 tumor cells were suspended in 0.1 mL mixture (PBS: Matrigel=4:1), and were inoculated to the right scapula on the back of each NOD/SCID mouse. When the average tumor volume reached about 350 mm^3 at 24th days after the inoculation, the mice with undersized or oversized tumor volume were removed and the other mice were divided to groups randomly according to the tumor volume and then were administrated.
# [4] = In vitro degradation assay in 0.01 M PBS buffer solution; assay type: physicochemical
# Experimental: In order to determine the degradation of the compounds in PBS buffer solution, the compounds DSR1˜6 were dissolved in 0.01 M PBS buffer solution, and were sampled every 30 min.
# [5] = 14th day after the grouping, compared with the solvent control group
# [6] = 22nd day after grouping, compared with the solvent control group
# [7] = intravenous twice a week, 22nd day after grouping
# [8] = intravenous twice a week, 25th day after grouping
Compound,"T/C (relative tumor proliferation ratio) [1, 5]",Relative tumor volume (x ± SE) ([1]; 14th day after the grouping),Tumor volume (x ± SE) ([1]; 14th day after the grouping),Relative tumor volume (x ± SE) ([1]; 21st day after grouping),Tumor volume (x ± SE) ([1]; 21st day after grouping),"T/C (relative tumor proliferation ratio) [2, 6]","Relative tumor volume (x ± SE) [2, 7]","Relative tumor volume (x ± SE) [2, 8]",Delayed days of tumor growth (to 1000 mm^3) [3],"Tumor proliferation rates T/C ([3]; compared with the solvent group, day 38 after the inoculation)",Tumor volume (average ± standard error) ([3]; day 24 after the inoculation (grouping)),Tumor volume (average ± standard error) ([3]; day 27 after the inoculation),Tumor volume (average ± standard error) ([3]; day 31 after the inoculation),Tumor volume (average ± standard error) ([3]; day 34 after the inoculation),Tumor volume (average ± standard error) ([3]; day 38 after the inoculation),degradation ([4]; at 90 min),degradation ([4]; at 240 min),"T/C (relative tumor proliferation ratio) ([1]; 21st day after grouping, compared with the dasatinib group)","T/C (relative tumor proliferation ratio) ([2]; 25th day after grouping, compared with the dasatinib group)","Tumor volume (x ± SE) [2, 7]"
Cc1nc(Nc2ncc(C(=O)Nc3c(C)cccc3Cl)s2)cc(N2CCN(CCO)CC2)n1 [dasatinib],12.4%,226.9 ± 30.0,311 mm^3 and 311 ± 55 mm^3,289.1 ± 46.9,391 mm^3 and 391 ± 79 mm^3,73%,1148.9 ± 112.7,1235.3 ± 119.6,–,–,–,–,–,–,–,–,–,–,–,–
"conjugate of Y shape PEG dipeptide of glutamic acid and glycine (number-average molecular weight of 40,000)-rapamycin [LPR-3]",–,–,–,–,–,–,–,–,>7 days,47%,358 ± 62 mm^3,455 ± 85 mm^3,569 ± 100 mm^3,754 ± 151 mm^3,848 ± 178 mm^3,–,–,–,–,–
conjugate of methoxy PEG dipeptide of glutamic acid and glycine (20K)-dasatinib [DSR-2],–,–,–,–,–,–,–,–,–,–,–,–,–,–,–,50%,–,–,–,–
conjugate of methoxy PEG glutamic acid dipeptide valine (20K)-dasatinib [DSR-4],1.6%,29.1 ± 4.8,39.2 mm^3 and 39.2 ± 6 mm^3,130 ± 28,176 mm^3 and 176 ± 59 mm^3,47%,745.9 ± 54.4,751.9 ± 78.9,–,–,–,–,–,–,–,–,20%,45%,61%,1187 mm^3 and 1187 ± 67 mm^3
